Results on 9 compounds are retold here after ChEMBL document CHEMBL5291721, “A preclinical secondary pharmacology resource illuminates target-adverse drug reaction associations of marketed drugs” (Nat Commun, 2023).

Targets include D(3) dopamine receptor (Homo sapiens, UniProt P35462); D(1A) dopamine receptor (Homo sapiens, UniProt P21728); Histamine H3 receptor (Homo sapiens, UniProt Q9Y5N1).
Assay [1] addresses T1, 5-hydroxytryptamine receptor 1A (Homo sapiens, UniProt P08908).
T1 sequence (P08908 whole entry): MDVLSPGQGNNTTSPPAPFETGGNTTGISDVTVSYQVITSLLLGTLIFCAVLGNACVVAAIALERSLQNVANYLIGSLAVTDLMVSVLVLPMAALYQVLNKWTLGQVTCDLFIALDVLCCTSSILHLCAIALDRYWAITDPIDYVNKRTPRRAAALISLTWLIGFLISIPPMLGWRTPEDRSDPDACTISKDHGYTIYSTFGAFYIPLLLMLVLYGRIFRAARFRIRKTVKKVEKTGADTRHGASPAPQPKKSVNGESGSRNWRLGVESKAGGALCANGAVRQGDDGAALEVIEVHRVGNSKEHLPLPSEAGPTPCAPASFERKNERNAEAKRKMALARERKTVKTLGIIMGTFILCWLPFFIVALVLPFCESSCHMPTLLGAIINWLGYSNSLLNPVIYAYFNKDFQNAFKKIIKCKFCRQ

In assay [2] the target is 5-hydroxytryptamine receptor 2B (Homo sapiens, UniProt P41595). Type of assay: functional, cell-based.
Assay [3] has as its target T2, Thromboxane A2 receptor (Homo sapiens, UniProt P21731).
T2 sequence (P21731 whole entry): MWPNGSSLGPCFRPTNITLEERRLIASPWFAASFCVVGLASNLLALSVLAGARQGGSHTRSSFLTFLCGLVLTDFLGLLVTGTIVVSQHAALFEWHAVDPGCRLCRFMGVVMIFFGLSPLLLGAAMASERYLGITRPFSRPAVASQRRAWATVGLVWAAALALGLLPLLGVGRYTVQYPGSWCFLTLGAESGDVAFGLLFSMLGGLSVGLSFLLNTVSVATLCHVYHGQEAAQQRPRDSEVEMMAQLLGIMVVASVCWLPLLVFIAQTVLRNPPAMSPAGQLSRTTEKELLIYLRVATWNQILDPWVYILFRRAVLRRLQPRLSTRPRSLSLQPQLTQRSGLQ
It counts as functional, cell-based.

Assay [4] concerns the target 3',5'-cyclic-AMP phosphodiesterase 4A (Homo sapiens, UniProt P27815). Type of assay: functional.
The target of another assay is Acetylcholinesterase (Homo sapiens, UniProt P22303). Type of assay: functional.
Another assay addresses T3, Progesterone receptor (Homo sapiens, UniProt P06401).
T3 sequence (P06401 whole entry): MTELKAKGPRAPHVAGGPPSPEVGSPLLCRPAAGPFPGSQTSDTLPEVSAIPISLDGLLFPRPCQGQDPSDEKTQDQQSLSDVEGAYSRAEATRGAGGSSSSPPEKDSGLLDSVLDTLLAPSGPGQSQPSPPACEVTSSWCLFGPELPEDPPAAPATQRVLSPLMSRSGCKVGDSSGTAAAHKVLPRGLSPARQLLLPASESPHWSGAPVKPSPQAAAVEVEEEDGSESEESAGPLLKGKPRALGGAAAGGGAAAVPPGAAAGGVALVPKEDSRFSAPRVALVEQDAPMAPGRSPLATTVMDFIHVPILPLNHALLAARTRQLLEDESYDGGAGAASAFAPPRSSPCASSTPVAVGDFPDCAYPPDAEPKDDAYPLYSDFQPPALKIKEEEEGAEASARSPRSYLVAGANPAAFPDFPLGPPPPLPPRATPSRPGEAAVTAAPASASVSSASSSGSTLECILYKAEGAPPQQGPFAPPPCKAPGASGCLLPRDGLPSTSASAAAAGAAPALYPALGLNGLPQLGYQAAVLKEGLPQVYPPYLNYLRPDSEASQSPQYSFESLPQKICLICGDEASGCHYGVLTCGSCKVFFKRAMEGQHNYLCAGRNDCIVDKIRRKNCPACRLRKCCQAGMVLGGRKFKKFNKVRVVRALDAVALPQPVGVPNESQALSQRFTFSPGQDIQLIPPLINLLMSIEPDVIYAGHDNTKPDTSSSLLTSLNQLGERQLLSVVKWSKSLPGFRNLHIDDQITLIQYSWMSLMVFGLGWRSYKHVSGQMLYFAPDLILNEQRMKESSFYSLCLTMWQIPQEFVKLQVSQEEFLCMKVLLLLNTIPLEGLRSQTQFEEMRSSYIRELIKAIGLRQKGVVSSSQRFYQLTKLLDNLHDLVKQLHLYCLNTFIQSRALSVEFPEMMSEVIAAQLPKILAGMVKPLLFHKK

Assay [5] has as its target T4, Alpha-2A adrenergic receptor (Homo sapiens, UniProt P08913).
T4 sequence (P08913 whole entry): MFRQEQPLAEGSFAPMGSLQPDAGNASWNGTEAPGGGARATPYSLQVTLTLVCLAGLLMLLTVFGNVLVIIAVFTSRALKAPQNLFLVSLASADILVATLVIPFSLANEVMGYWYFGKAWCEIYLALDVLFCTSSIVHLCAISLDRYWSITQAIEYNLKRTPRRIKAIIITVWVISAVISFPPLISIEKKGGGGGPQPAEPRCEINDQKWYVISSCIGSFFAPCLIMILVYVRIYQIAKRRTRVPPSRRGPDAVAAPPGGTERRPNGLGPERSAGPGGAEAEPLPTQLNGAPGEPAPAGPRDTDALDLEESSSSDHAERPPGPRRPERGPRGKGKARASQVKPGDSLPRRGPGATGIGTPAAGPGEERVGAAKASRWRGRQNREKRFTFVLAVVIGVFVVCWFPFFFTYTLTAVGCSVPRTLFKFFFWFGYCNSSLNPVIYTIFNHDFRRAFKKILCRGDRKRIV

The target of assay [6] is Sodium-dependent noradrenaline transporter (Homo sapiens, UniProt P23975).
The target in assay [7] is Prostaglandin G/H synthase 1 (Homo sapiens, UniProt P23219). It counts as functional.
The target in assay [8] is T2, Thromboxane A2 receptor. It counts as functional, cell-based. This is another data set of the same source.
The target of assay [9] is cGMP-inhibited 3',5'-cyclic phosphodiesterase 3A (Homo sapiens, UniProt Q14432). Type of assay: functional.
Note: assay procedure not described here.

cGMP-inhibited 3',5'-cyclic phosphodiesterase 3A, sequence (Q14432 whole entry): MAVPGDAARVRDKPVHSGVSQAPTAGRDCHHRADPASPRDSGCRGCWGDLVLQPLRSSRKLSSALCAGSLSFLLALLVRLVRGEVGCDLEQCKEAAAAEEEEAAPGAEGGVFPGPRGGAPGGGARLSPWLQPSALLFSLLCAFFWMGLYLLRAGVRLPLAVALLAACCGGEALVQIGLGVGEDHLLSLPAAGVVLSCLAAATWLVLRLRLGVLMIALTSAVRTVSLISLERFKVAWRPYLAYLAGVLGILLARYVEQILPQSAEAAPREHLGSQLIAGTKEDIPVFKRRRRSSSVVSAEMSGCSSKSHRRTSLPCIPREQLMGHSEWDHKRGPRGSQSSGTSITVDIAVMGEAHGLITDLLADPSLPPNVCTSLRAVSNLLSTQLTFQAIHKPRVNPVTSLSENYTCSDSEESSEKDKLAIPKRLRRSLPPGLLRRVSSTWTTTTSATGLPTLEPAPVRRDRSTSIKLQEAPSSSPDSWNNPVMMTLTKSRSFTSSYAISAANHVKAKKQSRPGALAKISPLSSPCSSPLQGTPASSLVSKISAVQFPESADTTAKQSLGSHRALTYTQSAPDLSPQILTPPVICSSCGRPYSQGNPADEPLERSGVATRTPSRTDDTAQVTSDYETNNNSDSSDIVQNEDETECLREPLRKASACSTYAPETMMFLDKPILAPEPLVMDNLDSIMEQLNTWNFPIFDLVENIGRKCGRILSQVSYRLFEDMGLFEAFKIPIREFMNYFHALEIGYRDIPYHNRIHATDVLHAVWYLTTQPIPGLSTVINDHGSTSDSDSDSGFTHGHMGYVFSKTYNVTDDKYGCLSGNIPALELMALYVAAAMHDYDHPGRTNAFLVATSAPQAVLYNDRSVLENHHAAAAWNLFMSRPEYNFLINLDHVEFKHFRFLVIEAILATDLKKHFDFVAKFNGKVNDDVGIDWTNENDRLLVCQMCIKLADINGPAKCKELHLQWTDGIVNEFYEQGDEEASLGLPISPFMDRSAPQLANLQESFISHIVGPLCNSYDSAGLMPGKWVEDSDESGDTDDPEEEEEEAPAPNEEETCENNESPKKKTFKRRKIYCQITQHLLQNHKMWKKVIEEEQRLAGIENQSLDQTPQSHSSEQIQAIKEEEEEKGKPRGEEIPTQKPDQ
D(3) dopamine receptor, sequence (P35462 whole entry): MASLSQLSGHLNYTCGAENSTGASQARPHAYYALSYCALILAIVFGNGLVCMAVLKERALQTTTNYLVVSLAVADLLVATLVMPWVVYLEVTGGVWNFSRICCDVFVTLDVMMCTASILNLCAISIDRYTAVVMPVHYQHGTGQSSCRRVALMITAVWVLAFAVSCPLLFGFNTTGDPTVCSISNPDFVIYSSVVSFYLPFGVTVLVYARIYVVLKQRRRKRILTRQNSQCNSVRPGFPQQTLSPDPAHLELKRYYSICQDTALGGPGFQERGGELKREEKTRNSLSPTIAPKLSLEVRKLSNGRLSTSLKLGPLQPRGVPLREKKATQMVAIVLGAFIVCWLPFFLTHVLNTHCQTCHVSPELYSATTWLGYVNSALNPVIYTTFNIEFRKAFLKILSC
Acetylcholinesterase, sequence (P22303 whole entry): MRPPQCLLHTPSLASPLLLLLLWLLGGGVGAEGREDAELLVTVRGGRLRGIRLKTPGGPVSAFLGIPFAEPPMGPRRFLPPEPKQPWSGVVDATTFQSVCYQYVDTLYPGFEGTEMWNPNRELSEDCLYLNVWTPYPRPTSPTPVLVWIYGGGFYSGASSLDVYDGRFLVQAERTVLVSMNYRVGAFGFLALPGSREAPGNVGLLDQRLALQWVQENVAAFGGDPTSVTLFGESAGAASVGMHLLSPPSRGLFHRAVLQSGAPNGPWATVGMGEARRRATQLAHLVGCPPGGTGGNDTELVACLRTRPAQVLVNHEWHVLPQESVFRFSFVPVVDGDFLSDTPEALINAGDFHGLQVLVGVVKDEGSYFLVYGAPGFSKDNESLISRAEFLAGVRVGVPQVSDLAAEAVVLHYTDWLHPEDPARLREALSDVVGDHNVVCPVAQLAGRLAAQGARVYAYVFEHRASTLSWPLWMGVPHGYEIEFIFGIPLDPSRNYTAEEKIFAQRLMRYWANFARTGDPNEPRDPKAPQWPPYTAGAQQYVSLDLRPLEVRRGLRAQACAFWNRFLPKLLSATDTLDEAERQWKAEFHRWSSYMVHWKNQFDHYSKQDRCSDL
D(1A) dopamine receptor, sequence (P21728 whole entry): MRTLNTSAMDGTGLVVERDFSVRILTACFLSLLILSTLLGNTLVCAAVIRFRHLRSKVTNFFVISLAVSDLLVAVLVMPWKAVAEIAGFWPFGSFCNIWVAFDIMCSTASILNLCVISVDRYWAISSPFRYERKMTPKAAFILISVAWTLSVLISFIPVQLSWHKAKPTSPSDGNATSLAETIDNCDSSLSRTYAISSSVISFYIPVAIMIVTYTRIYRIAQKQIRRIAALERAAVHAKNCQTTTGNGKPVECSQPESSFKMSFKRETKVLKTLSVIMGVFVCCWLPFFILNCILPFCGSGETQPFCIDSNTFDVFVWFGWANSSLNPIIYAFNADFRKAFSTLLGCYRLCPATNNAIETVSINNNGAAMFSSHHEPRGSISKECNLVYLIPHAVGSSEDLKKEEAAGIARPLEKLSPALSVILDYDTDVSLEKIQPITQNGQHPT
Sodium-dependent noradrenaline transporter, sequence (P23975 whole entry): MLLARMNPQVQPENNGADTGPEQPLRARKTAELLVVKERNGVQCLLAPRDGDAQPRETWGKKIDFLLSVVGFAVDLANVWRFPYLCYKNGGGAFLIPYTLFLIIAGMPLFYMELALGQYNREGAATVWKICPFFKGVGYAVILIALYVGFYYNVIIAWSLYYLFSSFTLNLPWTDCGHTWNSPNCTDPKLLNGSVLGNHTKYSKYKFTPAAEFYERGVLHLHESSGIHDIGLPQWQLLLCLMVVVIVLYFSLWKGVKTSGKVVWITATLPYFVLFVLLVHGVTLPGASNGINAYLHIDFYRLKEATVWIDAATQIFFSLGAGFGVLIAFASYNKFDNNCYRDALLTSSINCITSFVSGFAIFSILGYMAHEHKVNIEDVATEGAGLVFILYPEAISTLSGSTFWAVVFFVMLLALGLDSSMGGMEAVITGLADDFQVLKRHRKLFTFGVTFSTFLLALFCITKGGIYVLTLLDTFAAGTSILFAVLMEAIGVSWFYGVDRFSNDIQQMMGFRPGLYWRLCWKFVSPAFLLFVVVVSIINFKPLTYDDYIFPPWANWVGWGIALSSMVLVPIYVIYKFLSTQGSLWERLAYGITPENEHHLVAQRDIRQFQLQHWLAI
3',5'-cyclic-AMP phosphodiesterase 4A, sequence (P27815 whole entry): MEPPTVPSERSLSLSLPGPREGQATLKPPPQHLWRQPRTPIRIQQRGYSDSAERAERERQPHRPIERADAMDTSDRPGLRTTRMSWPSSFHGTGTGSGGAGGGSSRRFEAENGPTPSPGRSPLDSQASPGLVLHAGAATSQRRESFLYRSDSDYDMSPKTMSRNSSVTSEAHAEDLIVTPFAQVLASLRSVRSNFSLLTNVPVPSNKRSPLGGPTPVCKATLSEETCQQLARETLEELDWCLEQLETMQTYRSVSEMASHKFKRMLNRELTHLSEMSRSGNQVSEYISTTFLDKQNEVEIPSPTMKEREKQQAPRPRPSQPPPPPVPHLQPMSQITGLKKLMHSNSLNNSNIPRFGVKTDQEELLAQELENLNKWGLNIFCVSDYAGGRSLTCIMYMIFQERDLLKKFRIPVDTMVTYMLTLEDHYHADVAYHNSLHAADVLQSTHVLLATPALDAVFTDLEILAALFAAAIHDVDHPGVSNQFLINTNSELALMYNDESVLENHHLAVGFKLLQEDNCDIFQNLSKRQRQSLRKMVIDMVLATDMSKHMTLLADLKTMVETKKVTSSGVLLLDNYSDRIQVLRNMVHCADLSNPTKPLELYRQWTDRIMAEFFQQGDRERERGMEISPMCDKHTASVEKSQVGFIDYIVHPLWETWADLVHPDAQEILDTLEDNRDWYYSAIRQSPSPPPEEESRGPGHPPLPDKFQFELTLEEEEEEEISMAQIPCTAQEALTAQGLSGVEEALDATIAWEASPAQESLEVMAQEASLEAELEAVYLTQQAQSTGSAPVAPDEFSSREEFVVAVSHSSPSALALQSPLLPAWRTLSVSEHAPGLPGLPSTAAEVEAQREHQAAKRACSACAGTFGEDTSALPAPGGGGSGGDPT
Histamine H3 receptor, sequence (Q9Y5N1 whole entry): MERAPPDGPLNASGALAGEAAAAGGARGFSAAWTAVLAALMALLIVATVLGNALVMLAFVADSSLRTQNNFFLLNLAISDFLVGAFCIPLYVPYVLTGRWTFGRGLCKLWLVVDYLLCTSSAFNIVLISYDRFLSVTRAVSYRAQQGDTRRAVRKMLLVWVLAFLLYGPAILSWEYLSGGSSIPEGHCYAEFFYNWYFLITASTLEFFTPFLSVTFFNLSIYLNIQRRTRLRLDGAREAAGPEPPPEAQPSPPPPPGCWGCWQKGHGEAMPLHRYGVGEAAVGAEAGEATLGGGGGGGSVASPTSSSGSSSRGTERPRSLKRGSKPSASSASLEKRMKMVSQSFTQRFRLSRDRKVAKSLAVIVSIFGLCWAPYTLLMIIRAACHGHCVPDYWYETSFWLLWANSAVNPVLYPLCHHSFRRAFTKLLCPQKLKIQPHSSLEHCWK
5-hydroxytryptamine receptor 2B, sequence (P41595 whole entry): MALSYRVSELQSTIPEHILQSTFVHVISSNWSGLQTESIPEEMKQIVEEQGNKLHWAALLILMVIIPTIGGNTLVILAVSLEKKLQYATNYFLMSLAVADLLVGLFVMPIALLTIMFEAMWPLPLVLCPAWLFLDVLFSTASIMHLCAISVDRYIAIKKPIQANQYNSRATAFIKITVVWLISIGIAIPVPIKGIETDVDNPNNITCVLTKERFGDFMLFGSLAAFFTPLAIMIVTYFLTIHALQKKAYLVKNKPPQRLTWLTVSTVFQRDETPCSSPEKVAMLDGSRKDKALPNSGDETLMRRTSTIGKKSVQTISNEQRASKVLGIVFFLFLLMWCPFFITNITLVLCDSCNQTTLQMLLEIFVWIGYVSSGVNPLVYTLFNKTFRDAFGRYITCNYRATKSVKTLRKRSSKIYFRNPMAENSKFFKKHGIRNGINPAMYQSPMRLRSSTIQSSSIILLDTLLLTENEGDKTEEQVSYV

A word on the AC50: it is the concentration at which the activity in the assay is half-maximal. A low value points to greater potency. On to `CN1CCCCC1CCN1c2ccccc2Sc2ccc([S+](C)[O-])cc21` (stereo unspecified) [MESORIDAZINE], for which the half-maximal activity concentration (AC50) is 0.0197 µM on D(3) dopamine receptor; 0.214 µM in assay [1]; above 30 µM in assay [2]; above 30 µM on Thromboxane A2 receptor [3]; 0.0712 µM on D(1A) dopamine receptor; above 30 µM in assay [4]. Moreover, the AC50 was above 30 µM on Acetylcholinesterase; above 30 µM on Progesterone receptor; 2.59 µM in assay [5]; 28.8 µM in [6]; above 30 µM in [7]; 21.9 µM at Histamine H3 receptor. Further, the AC50 (at Thromboxane A2 receptor [8]; in assay [9]) was above 30 µM in each case.

As for `CC(=O)O[C@]1(C(C)=O)CC[C@H]2[C@@H]3C=C(C)C4=CC(=O)CC[C@@H]4[C@H]3CC[C@@]21C` [NOMEGESTROL ACETATE], the AC50 on D(3) dopamine receptor was above 30 µM; in assay [1], above 30 µM; in [2], above 30 µM; on Thromboxane A2 receptor [3], above 10 µM; on D(1A) dopamine receptor it was above 30 µM; in assay [4], above 30 µM. The AC50 is above 30 µM at Acetylcholinesterase; 0.003 µM on Progesterone receptor; above 30 µM in assay [5]; above 30 µM in [6]; above 30 µM in assay [7]; above 30 µM at Histamine H3 receptor. Further, the AC50 (on Thromboxane A2 receptor [8]; in assay [9]) was above 30 µM each time.

For `CCOC(=O)c1c(C)cc2c(CO)n[nH]c(=O)c2c1C` [OXAGRELATE], the AC50 (at D(3) dopamine receptor; in assay [1]; in assay [2]; at Thromboxane A2 receptor [3]; at D(1A) dopamine receptor; in [4]) was above 30 µM in each case. The AC50 (at Acetylcholinesterase; at Progesterone receptor; in [5]; in assay [6]; in [7]; on Histamine H3 receptor) was above 30 µM throughout. The AC50 on Thromboxane A2 receptor [8] is above 30 µM; in assay [9], 6.48 µM.

Take `CCn1cc(C(=O)O)c(=O)c2cc3c(cc21)OCO3` [OXOLINIC ACID]: the AC50 (on D(3) dopamine receptor; in assay [1]; in [2]; at Thromboxane A2 receptor [3]; at D(1A) dopamine receptor; in assay [4]) was above 30 µM in each case. Moreover, the AC50 (at Acetylcholinesterase; on Progesterone receptor; in assay [5]; in assay [6]; in assay [7]; on Histamine H3 receptor) was above 30 µM throughout. Besides, the AC50 (on Thromboxane A2 receptor [8]; in assay [9]) was above 30 µM each time.

Regarding `FC(F)(F)c1ccc(CNc2ccc(Cc3c[nH]c4ncc(Cl)cc34)cn2)cn1` [PEXIDARTINIB], the AC50 at D(3) dopamine receptor is 10.2 µM; in [1] it was 0.627 µM; in assay [2], above 30 µM; at Thromboxane A2 receptor [3] it was 8.61 µM; at D(1A) dopamine receptor, 20.2 µM; in [4], above 30 µM. Also, the AC50 at Acetylcholinesterase was above 30 µM; on Progesterone receptor it was 9.95 µM; in assay [5] it was 17.1 µM; in assay [6], 3.96 µM; in assay [7], above 30 µM; at Histamine H3 receptor, above 30 µM. The AC50 (on Thromboxane A2 receptor [8]; in [9]) was above 30 µM in each case.

With `Nc1ccc(C(=O)Oc2ccccc2)c(O)c1` [PHENYL AMINOSALICYLATE], the AC50 on D(3) dopamine receptor was above 30 µM; in assay [1] it was above 30 µM; in [2], above 30 µM; on Thromboxane A2 receptor [3] it was 17.2 µM; at D(1A) dopamine receptor, above 30 µM; in assay [4], 14.5 µM. Also, the AC50 on Acetylcholinesterase is above 30 µM; at Progesterone receptor it was above 30 µM; in assay [5] it was above 30 µM; in assay [6] it was 0.777 µM; in assay [7], above 30 µM; at Histamine H3 receptor, above 30 µM. In addition, the AC50 (on Thromboxane A2 receptor [8]; in [9]) was above 30 µM throughout.

Consider `CN1CCC(=C2c3ccccc3Sc3ccccc32)CC1` [PIMETHIXENE], for which the AC50 at D(3) dopamine receptor is 0.0497 µM; in [1] it was 0.0145 µM; in assay [2], above 30 µM; at Thromboxane A2 receptor [3], 14 µM; on D(1A) dopamine receptor, 0.0552 µM; in [4], above 30 µM. Besides, the AC50 on Acetylcholinesterase is above 30 µM; at Progesterone receptor, above 30 µM; in assay [5] it was 0.0422 µM; in [6], 0.142 µM; in assay [7], above 30 µM; on Histamine H3 receptor it was above 30 µM. Besides, the AC50 (at Thromboxane A2 receptor [8]; in assay [9]) was above 30 µM throughout.

As for `[H]/N=C(\N/C(=N/[H])Nc1ccc(Cl)cc1)NC(C)C` [PROGUANIL], the AC50 at D(3) dopamine receptor is above 30 µM; in assay [1] it was above 30 µM; in assay [2] it was above 30 µM; on Thromboxane A2 receptor [3], above 30 µM; at D(1A) dopamine receptor, 8.26 µM; in assay [4], above 30 µM. Further, the AC50 is above 30 µM at Acetylcholinesterase; above 30 µM on Progesterone receptor; 11.9 µM in assay [5]; 1.07 µM in assay [6]; above 30 µM in [7]; above 30 µM on Histamine H3 receptor. Also, the AC50 (at Thromboxane A2 receptor [8]; in assay [9]) was above 30 µM throughout.

On to `CC(CN1CC(=O)NC(=O)C1)N1CC(=O)NC(=O)C1` (stereo unspecified) [RAZOXANE], for which the AC50 (on D(3) dopamine receptor; in assay [1]; in [2]; on Thromboxane A2 receptor [3]; at D(1A) dopamine receptor; in assay [4]) was above 30 µM each time. For the same compound, the AC50 at Acetylcholinesterase is above 10 µM; on Progesterone receptor, above 30 µM; in [5], above 30 µM; in [6] it was above 30 µM; in [7], above 3 µM; at Histamine H3 receptor it was above 30 µM. For the same compound, the AC50 (at Thromboxane A2 receptor [8]; in [9]) was above 30 µM in each case.
